Laboratory results: article PMC7485140 (Clinical Pharmacology and Therapeutics, 2020)
Like-named read-outs stand apart in the source and are kept apart here. Starred links: 1 amine or outer side, 2 acyl side, 3 side chain; linkers in the order of their positions; H or OH if unused. Positions of bridges follow the written chain, without caps; N, C: chain ends. Non-standard residues stand in square brackets, D forms with d. Residues, ends and D or L forms follow the SMILES beside them. *: point of attachment. pTerphenylCO(4''-OnC5H11) = CCCCCOc1ccc(-c2ccc(-c3ccc(C(=O)*)cc3)cc2)cc1; Orn(4R-OH,5R-OH) = O=C([C@H](C[C@@H](O)[C@@H](O)N[*:3])N[*:1])[*:2]; hTyr(3S-OH,4S-OH) = N[C@H](C(=O)O)[C@H](O)[C@@H](O)c1ccc(O)cc1; Pro(3S-OH,4S-Me) = C[C@H]1CN[C@H](C(=O)O)[C@H]1O; Hyp = O=C(O)[C@@H]1C[C@@H](O)CN1

Experiments:
[1] = cited from earlier work
[2] = adult patients with serious fungal infections; cited from earlier work
[3] = cited from earlier work; remark: listed apart in the source
[4] = Pooled population PK analysis of i.v. anidulafungin; assay type: in vivo, human; conditions: patients aged 1 month to < 2 years, n = 23, i.v. LD/MD 3.0/1.5 mg/kg q.d., weight-corrected, final PK model; for Vd: Vss
[5] = infant patients at high risk for invasive fungal infections
[6] = neonatal patients at high risk for invasive fungal infections

CCCCCOc1ccc(-c2ccc(-c3ccc(C(=O)N[C@H]4C[C@@H](O)[C@@H](O)NC(=O)[C@@H]5[C@@H](O)[C@@H](C)CN5C(=O)[C@H]([C@@H](C)O)NC(=O)[C@H]([C@H](O)[C@@H](O)c5ccc(O)cc5)NC(=O)[C@@H]5C[C@@H](O)CN5C(=O)[C@H]([C@@H](C)O)NC4=O)cc3)cc2)cc1 [anidulafungin] ({pTerphenylCO(4''-OnC5H11)}-[Orn(4R-OH,5R-OH)]T[Hyp][hTyr(3S-OH,4S-OH)]T[Pro(3S-OH,4S-Me)]; lactam 1-C)
chemical stability in blood ([1]; blood at physiologic temperature and pH): slow chemical degradation | hepatic metabolism [1]: not metabolized by the liver | renal CL ([1]; negligible renal clearance): < 1% | mean CL [2]: 1.0 L/h | mean CL [3, 5]: 0.25 mL/min/kg | mean Vss [3, 5]: 0.9 L/kg | median AUCss [3, 5]: 97700 ng·h/mL | mean CL [3, 6]: 0.333 mL/min/kg | mean Vss [3, 6]: 1.7 L/kg | median AUCss [3, 6]: 74900 ng·h/mL | clearance ([4]; human, plasma, iv, CL, Mean (SD), SD): 0.35 mL/min/kg | Vd ([4]; human, plasma, iv, Mean (SD), SD): 0.77 L/kg | Vd ([4]; human, plasma, iv, Median (range)): 0.75 L/kg | CL, Median (range) [4]: 0.021 (0.006–0.032) L/hour/kg
